This is an account of results in patent US5399748A, “Derivatives of aspartic acid and glutamic acid having anticholecystokinin activity” (James Black Foundation Limited, priority 1990, dated 1995).

The first assay deals with T1, CCK-A (Cavia porcellus, UniProt Q63931).
T1 construct: Isolated, strip preparations were prepared from gall-bladders removed from male Dunkin-Hartley guinea-pigs; from tissue; host or cells: isolated gall-bladder strips of male Dunkin-Hartley guinea-pigs
T1 sequence (Q63931 1-430): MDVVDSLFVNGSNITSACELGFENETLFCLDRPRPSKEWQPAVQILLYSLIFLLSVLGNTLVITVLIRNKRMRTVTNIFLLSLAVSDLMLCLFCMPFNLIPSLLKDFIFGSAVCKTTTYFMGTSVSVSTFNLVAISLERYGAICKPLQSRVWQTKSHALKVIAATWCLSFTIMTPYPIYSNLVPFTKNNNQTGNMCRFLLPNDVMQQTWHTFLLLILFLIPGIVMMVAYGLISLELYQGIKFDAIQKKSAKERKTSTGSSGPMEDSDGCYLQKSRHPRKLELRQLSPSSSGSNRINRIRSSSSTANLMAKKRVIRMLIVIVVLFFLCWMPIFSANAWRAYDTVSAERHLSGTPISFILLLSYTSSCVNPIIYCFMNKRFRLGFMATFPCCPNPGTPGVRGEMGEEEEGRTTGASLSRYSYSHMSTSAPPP
Nature of the assay: CCK-receptor bioassay, isolated guinea-pig gall-bladder strips, CCK-8 as agonist. The note with it: negative logarithm (base 10) of equilibrium dissociation constant (pKB), CCK-8 agonist, test compound incubated 60 minutes. The format is cell-based, male Dunkin-Hartley guinea-pigs. On the procedure: The compounds were assayed using the CCK-receptor bioassay as follows:
Isolated, strip preparations were prepared from gall-bladders removed from male Dunkin-Hartley guinea-pigs (250-500 g body weight) according to the method of La Morte, W. W., et al., J.P.E.T., 217, (3), 638-644 (1981).
The complete gall-bladder is removed and opened along the longitudinal axis. Strips measuring 3 mm in the longitudinal axis and 1 mm in the transverse axis are cut and then tied with cotton to stainless steel wires. The preparation is connected to a GRASS FTO3 isometric transducer under an initial loading tension of 1 g and is immersed in 20 mls of Krebs solution maintained at 37° C. and gassed with 95% O2 /5% CO2. The composition (mM) of the Krebs solution is as follows: Na^+ 143, K^+ 5.9, Ca^2+ 0.5, Mg^2+ 1.2, Cl^- 128, H2 PO4^- 2.2, HCO3^- 24.9, SO4^2- 1.2, dextrose 10. After 30 mins the preparation is washed. Drug addition begins after an initial 90 min stabilisation period. Responses are measured as changes in tension from that immediately prior to any drug addition. Single cumulative agonist concentration-effect curves, using CCK-8 as agonist, are obtained on each preparation in the absence and presence of test compound which has been incubated for 60 minutes. The antagonist activity of the test compound is estimated and expressed as the negative logarithm (base 10) of the equilibrium dissociation constants (pKB) using the modifications of standard competitive analysis described by Black et al., Br. J. Pharmacol.,86,571-579, (1985) and Shankley et al., Br. J. Pharmacol.,94,264-274 (1988).
What is called pKB is the KB on a negative log10 scale, so that one unit is a factor of ten. Turning to `O=C(O)C[C@H](NS(=O)(=O)Cc1ccc2ccccc2c1)C(=O)NCCc1ccccc1` [Example 10, Naphthylmethanesulphonyl-L-aspartyl (2-phenethyl)amide], the pKB is listed as 5.40 ± 0.18.

`COc1ccc2cc(S(=O)(=O)N[C@@H](CC(=O)O)C(=O)NCCc3ccccc3)ccc2c1Cl` [Example 13, 5-Chloro-6-methoxynaphthalenesulphonyl-L-aspartyl (2-phenethyl)amide] returned a pKB of 6.49 ± 0.38.

In turn, `O=C(O)C[C@H](NS(=O)(=O)/C=C/c1ccccc1)C(=O)NCCc1ccccc1` [Example 22, 2-phenethenylsulphonyl-L-aspartyl (2-phenethyl)amide] yielded a pKB of 6.27 ± 0.22.

The assay is the same for the next values; noted with them: negative logarithm (base 10) of equilibrium dissociation constant (pKB), CCK-8 agonist, test compound incubated 60 minutes, read-out: pK8 versus CCK (gallbladder) (converted).
Consider `O=C(O)C[C@H](NS(=O)(=O)c1ccc2ccccc2c1)C(=O)NCCc1ccccc1` [Example 1, 2-Naphthalenesulphonyl-L-aspartyl (2-phenethyl)amide], for which the Kb was 324 nM.

`O=C(O)C[C@H](NS(=O)(=O)CCc1ccccc1)C(=O)NCCc1ccccc1` [Example 7, 2-phenylethanesulphonyl-L-aspartyl (2-phenethyl)amide]: the Kb is 3470 nM.

Regarding `O=C(O)C[C@H](NS(=O)(=O)c1ccc(Cl)c(Cl)c1)C(=O)NCCc1ccccc1` [Example 9, 3,4-Dichlorobenzenesulphonyl-L-aspartyl (2-phenethyl)amide], the Kb was 1700 nM.

As for `COc1ccc2cc(S(=O)(=O)N[C@@H](CC(=O)O)C(=O)NCCc3ccccc3)ccc2c1` [Example 12, 6-Methoxynaphthalenesulphonyl-L-aspartyl (2-phenethyl)amide], the Kb is 257 nM.

As for `COc1cc2cc(S(=O)(=O)N[C@@H](CC(=O)O)C(=O)NCCc3ccccc3)ccc2c(Cl)c1OC` [Example 14, 5-Chloro-6,7-dimethoxynaphthalenesulphonyl-L-aspartyl (2-phenethyl)amide], the Kb is 617 nM.

`O=C(O)C[C@@H](NS(=O)(=O)c1ccc2ccccc2c1)C(=O)NCCc1ccccc1` [Example 15, 2-Naphthalenesulphonyl-D-aspartyl (2-phenethyl)amide]: the Kb was 1200 nM.

Consider `O=C(O)CC[C@H](NS(=O)(=O)c1ccc2ccccc2c1)C(=O)NCCc1ccccc1` [Example 16, 2-Naphthalenesulphonyl-L-glutamyl (2-phenethyl)amide], for which the Kb is 724 nM.

Regarding `O=C(O)C[C@H](NS(=O)(=O)c1ccc2ccccc2c1)C(=O)NCCc1ccc(F)cc1` [Example 18, 2-Naphthalenesulphonyl-L-aspartyl (2(4-fluorophenethyl)amide)], the Kb was 269 nM.

For `COc1ccc(CCNC(=O)[C@H](CC(=O)O)NS(=O)(=O)c2ccc3ccccc3c2)cc1` [Example 19, Naphthalenesulphonyl-L-aspartyl (2-(4-methoxyphenethyl)amide)], the Kb is 1020 nM.

For the molecule `NS(=O)(=O)c1ccc(CCNC(=O)[C@H](CC(=O)O)NS(=O)(=O)c2ccc3ccccc3c2)cc1` [Example 20, 2-Naphthalenesulphonyl-L-aspartyl (2-(4-sulphonamidophenethyl)amide)], the Kb was 11200 nM.

Take `O=C(O)C[C@H](NS(=O)(=O)c1ccc2ccccc2c1)C(=O)N1CCc2ccccc2C1` [Example 21, 2-Naphthalenesulphonyl-L-aspartyl (1,2,3,4-tetrahydroisoquinolin)amide]: the Kb is 7240 nM.

On to `O=C(O)C[C@H](NS(=O)(=O)c1ccc2ccccc2c1)C(=O)NCCCc1ccccc1` [Example 23, 2 -Naphthalenesulphonyl-L-aspartyl (3-phenylpropyl)amide], for which the Kb was 105 nM.
